{
  "source": "paper PMC9315372",
  "about": "“Impact of Sub-MIC Eugenol on Klebsiella pneumoniae Biofilm Formation via Upregulation of rcsB” (Frontiers in Veterinary Science, 2022)",
  "target": "T1, RcsB (Klebsiella pneumoniae, UniProt W1DMM9)",
  "T1 construct": "expressed and purified earlier in the laboratory",
  "T1 sequence (W1DMM9 entry or part of it)": "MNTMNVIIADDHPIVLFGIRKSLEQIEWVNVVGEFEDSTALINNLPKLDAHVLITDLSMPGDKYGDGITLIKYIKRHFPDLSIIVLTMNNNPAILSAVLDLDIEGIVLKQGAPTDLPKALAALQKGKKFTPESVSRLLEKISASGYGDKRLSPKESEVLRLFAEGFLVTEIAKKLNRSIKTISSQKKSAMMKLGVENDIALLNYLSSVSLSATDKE",
  "assay": "microscale thermophoresis (Monolith NT.[…])",
  "assay_type": "binding",
  "data": [
    {"smiles": "C=CCc1ccc(O)c(OC)c1", "note": "[eugenol]", "values": [
      {"measurement": "Kd", "value": 53.4, "unit": "µM"}
    ]}
  ]
}
